{"source": "patent US20090149512A1", "about": "“Use of Ghrelin Antagonists to the Treatment of Certain CNS Diseases” (Novo Nordisk A/S, priority 2004, published 2009)", "system": "diabetic ob/ob mice", "experiment": "Assessment of level of wakefulness/activity (locomotor activity, light-beam interruption method)", "assay_type": "in vivo", "conditions": "20 mg/kg i.p. in saline once daily for 14 days, male, 8 months old", "experimental": "The effect of an administered substance (for example a ghrelin antagonist) on the level of wakefulness or activity in animal subjects (for example, mice) may be assessed by means of an activity test in which the primary measurement parameter is locomotor activity.\nBaseline activity is determined for all the animals 1-2 days prior to administration of saline (placebo) or ghrelin antagonist. The animals are subsequently monitored, either acutely or at the end of a more sub-chronic or chronic treatment lasting several days or weeks, for behavioural sensitization. On testing days, the animals are allowed to acclimatize to the behavioural monitors for 30 minutes prior to data accumulation if the monitors in question are different from their “home” cages. Activity is recorded for at least 1 hour on each of the testing days (baseline and post-treatment test). In a suitable arrangement, transparent chambers of Plexiglas™ are equipped with aluminium frames on which are mounted infrared light emitters and detectors. The detectors are interfaced to a personal computer (PC). Behavioural or psychomotor activity is defined as the total number of light-beam interruptions recorded during each testing session. […]"}
{"smiles": "CNC(=O)c1noc(C(Cc2ccccc2)N(C)C(=O)[C@@H](Cc2ccc3ccccc3c2)NC(=O)/C=C/C(C)(C)N)n1", "note": "(single isomer, unassigned) [D2]", "values": [{"measurement": "behaviour of treated animals when observed", "value": "awake and interested in their environment"}, {"measurement": "level of wakefulness/activity (locomotor activity) assessed using the light-beam interruption method", "setting": "versus saline control", "value": "became surprisingly active and awake for the duration of the study"}]}
